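96-well plates; 48 h exposure; 5 concentrations. Endpoints by linear interpolation between flanking doses. Not reached: highest tested concentration assigned. GI50 marks 50% less growth. The concentration for full growth arrest is given as TGI.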
Assays:
Assay in all cases: NCI tumour cell line growth inhibition, 48 h
MCF7 breast = tested on: MCF7 breast
HL-60(TB) leukemia = tested on: HL-60(TB) leukemia
A549 NSCLC = tested on: A549 NSCLC
MALME-3M melanoma = tested on: MALME-3M melanoma
HS 578T breast = tested on: HS 578T breast
COLO 205 colon = tested on: COLO 205 colon
IGROV1 ovarian = tested on: IGROV1 ovarian
SF-295 CNS = tested on: SF-295 CNS
BT-549 breast = tested on: BT-549 breast
HCT-15 colon = tested on: HCT-15 colon
HOP-92 NSCLC = tested on: HOP-92 NSCLC
ACHN renal = tested on: ACHN renal
SNB-75 CNS = tested on: SNB-75 CNS
KM12 colon = tested on: KM12 colon
786-0 renal = tested on: 786-0 renal
UACC-62 melanoma = tested on: UACC-62 melanoma
MDA-MB-231 breast = tested on: MDA-MB-231 breast
SK-MEL-5 melanoma = tested on: SK-MEL-5 melanoma
NCI-H522 lung = tested on: NCI-H522 lung
MOLT-4 leukemia = tested on: MOLT-4 leukemia
UO-31 renal = tested on: UO-31 renal
HT29 colon = tested on: HT29 colon
UACC-257 melanoma = tested on: UACC-257 melanoma
A498 renal = tested on: A498 renal
SNB-19 CNS = tested on: SNB-19 CNS
SF-268 CNS = tested on: SF-268 CNS
U251 CNS = tested on: U251 CNS
DU-145 prostate = tested on: DU-145 prostate
SF-539 CNS = tested on: SF-539 CNS
RPMI-8226 leukemia = tested on: RPMI-8226 leukemia
K-562 leukemia = tested on: K-562 leukemia
TK-10 renal = tested on: TK-10 renal
NCI/ADR-RES ovarian = tested on: NCI/ADR-RES ovarian
HCC-2998 colon = tested on: HCC-2998 colon
CCRF-CEM leukemia = tested on: CCRF-CEM leukemia
M14 melanoma = tested on: M14 melanoma
NCI-H23 lung = tested on: NCI-H23 lung
SN12C renal = tested on: SN12C renal
HCT-116 colon = tested on: HCT-116 colon
OVCAR-4 ovarian = tested on: OVCAR-4 ovarian
HOP-62 NSCLC = tested on: HOP-62 NSCLC
EKVX NSCLC = tested on: EKVX NSCLC
SW-620 colon = tested on: SW-620 colon
RXF 393 renal = tested on: RXF 393 renal
OVCAR-3 ovarian = tested on: OVCAR-3 ovarian
OVCAR-8 ovarian = tested on: OVCAR-8 ovarian
T-47D breast = tested on: T-47D breast
MDA-MB-435 = tested on: MDA-MB-435
LOX IMVI melanoma = tested on: LOX IMVI melanoma
OVCAR-5 ovarian = tested on: OVCAR-5 ovarian
SK-MEL-2 melanoma = tested on: SK-MEL-2 melanoma
SK-MEL-28 melanoma = tested on: SK-MEL-28 melanoma
PC-3 prostate = tested on: PC-3 prostate
CAKI-1 renal = tested on: CAKI-1 renal
SK-OV-3 ovarian = tested on: SK-OV-3 ovarian
NCI-H226 lung = tested on: NCI-H226 lung

## COc1cc2cc(C(=O)N3CC(CCl)c4ccc([N+](=O)[O-])cc43)[nH]c2c(OC)c1OC (stereo not given)
MCF7 breast
  TGI: > 100 µM
HL-60(TB) leukemia
  TGI: > 100 µM
A549 NSCLC
  TGI: > 100 µM
MALME-3M melanoma
  TGI: > 100 µM
HS 578T breast
  TGI: > 100 µM
COLO 205 colon
  TGI: > 100 µM
IGROV1 ovarian
  TGI: > 100 µM
SF-295 CNS
  TGI: > 100 µM
BT-549 breast
  TGI: > 100 µM
HCT-15 colon
  TGI: > 100 µM
HOP-92 NSCLC
  TGI: > 100 µM
ACHN renal
  TGI: > 100 µM
SNB-75 CNS
  TGI: > 100 µM
KM12 colon
  TGI: > 100 µM
786-0 renal
  TGI: > 100 µM
UACC-62 melanoma
  TGI: > 100 µM
MDA-MB-231 breast
  TGI: > 100 µM
SK-MEL-5 melanoma
  TGI: > 100 µM
NCI-H522 lung
  TGI: > 100 µM
MOLT-4 leukemia
  TGI: > 100 µM
UO-31 renal
  TGI: > 100 µM
HT29 colon
  TGI: 36.7 µM
UACC-257 melanoma
  TGI: > 100 µM
A498 renal
  TGI: > 100 µM
SNB-19 CNS
  TGI: > 100 µM
SF-268 CNS
  TGI: > 100 µM
U251 CNS
  TGI: > 100 µM
DU-145 prostate
  TGI: > 100 µM
SF-539 CNS
  TGI: > 100 µM
RPMI-8226 leukemia
  TGI: > 100 µM
K-562 leukemia
  TGI: > 100 µM
TK-10 renal
  TGI: > 100 µM
NCI/ADR-RES ovarian
  TGI: > 100 µM
HCC-2998 colon
  TGI: > 100 µM
CCRF-CEM leukemia
  TGI: > 100 µM
M14 melanoma
  TGI: > 100 µM
NCI-H23 lung
  TGI: > 100 µM
SN12C renal
  TGI: > 100 µM
HCT-116 colon
  TGI: > 100 µM
OVCAR-4 ovarian
  TGI: > 100 µM
HOP-62 NSCLC
  TGI: > 100 µM
EKVX NSCLC
  TGI: 67.2 µM
SW-620 colon
  TGI: > 100 µM
RXF 393 renal
  TGI: > 100 µM
OVCAR-3 ovarian
  TGI: > 100 µM
OVCAR-8 ovarian
  TGI: > 100 µM
T-47D breast
  TGI: > 100 µM
MDA-MB-435
  TGI: > 100 µM
LOX IMVI melanoma
  TGI: > 100 µM
OVCAR-5 ovarian
  TGI: > 100 µM
SK-MEL-2 melanoma
  TGI: > 100 µM
SK-MEL-28 melanoma
  TGI: > 100 µM
PC-3 prostate
  TGI: > 100 µM
CAKI-1 renal
  TGI: > 100 µM

## CN(C)C=Nc1c2ccccc2nc2ccccc12
MCF7 breast
  TGI: 12.1 µM
HL-60(TB) leukemia
  TGI: 18.2 µM
A549 NSCLC
  TGI: 17.3 µM
MALME-3M melanoma
  TGI: 12.7 µM
HS 578T breast
  TGI: 6.82 µM
COLO 205 colon
  TGI: 8.87 µM
IGROV1 ovarian
  TGI: 26.3 µM
SK-OV-3 ovarian
  TGI: 23.4 µM
SF-295 CNS
  TGI: 21.6 µM
BT-549 breast
  TGI: 13.2 µM
HCT-15 colon
  TGI: 32.8 µM
HOP-92 NSCLC
  TGI: 22.3 µM
ACHN renal
  TGI: 34 µM
SNB-75 CNS
  TGI: 13.6 µM
NCI-H226 lung
  TGI: 9.06 µM
786-0 renal
  TGI: 16.9 µM
UACC-62 melanoma
  TGI: 7.65 µM
MDA-MB-231 breast
  TGI: 21.5 µM
SK-MEL-5 melanoma
  TGI: 12.5 µM
NCI-H522 lung
  TGI: 4.99 µM
MOLT-4 leukemia
  TGI: 9.05 µM
UO-31 renal
  TGI: 29.5 µM
HT29 colon
  TGI: 14.5 µM
UACC-257 melanoma
  TGI: 9.3 µM
A498 renal
  TGI: 21 µM
SNB-19 CNS
  TGI: 17.9 µM
SF-268 CNS
  TGI: 13.1 µM
U251 CNS
  TGI: 15 µM
DU-145 prostate
  TGI: 39.7 µM
SF-539 CNS
  TGI: 10.4 µM
RPMI-8226 leukemia
  TGI: 6.88 µM
K-562 leukemia
  TGI: 22.6 µM
TK-10 renal
  TGI: 40 µM
NCI/ADR-RES ovarian
  TGI: 34.6 µM
CCRF-CEM leukemia
  TGI: 21.2 µM
M14 melanoma
  TGI: 16.2 µM
NCI-H23 lung
  TGI: 15.8 µM
SN12C renal
  TGI: 11.9 µM
HCT-116 colon
  TGI: 17.8 µM
OVCAR-4 ovarian
  TGI: 21.1 µM
HOP-62 NSCLC
  TGI: 25.4 µM
EKVX NSCLC
  TGI: 29.1 µM
RXF 393 renal
  TGI: 16.4 µM
OVCAR-3 ovarian
  TGI: 13.4 µM
OVCAR-8 ovarian
  TGI: 18.3 µM
T-47D breast
  TGI: 9.67 µM
MDA-MB-435
  TGI: 15.1 µM
LOX IMVI melanoma
  TGI: 7.13 µM
OVCAR-5 ovarian
  TGI: 32.8 µM
SK-MEL-2 melanoma
  TGI: 9.26 µM
SK-MEL-28 melanoma
  TGI: 5.42 µM
PC-3 prostate
  TGI: 14.5 µM
CAKI-1 renal
  TGI: > 100 µM

## C#CC[C@@H]1C[C@]2(C)[C@H]3CC[C@@H]4[C@H]5C(C(=C)C)CC[C@]5(C(=O)NCCCCCCCCN)CC[C@@]4(C)[C@]3(C)CC[C@H]2C(C)(C)[C@H]1OC(C)=O (stereo not given in full)
KM12 colon
  GI50: 1.73 µM
  TGI: 3.22 µM
UO-31 renal
  GI50: 1.46 µM
  TGI: 2.84 µM
A498 renal
  GI50: 2.25 µM
  TGI: 5.35 µM
SW-620 colon
  GI50: 1.71 µM
  TGI: 3.31 µM

— PubChem BioAssay (NCI)
